The text below walks through data of US4371541A, “Antiinflammatory and/or analgesic 3,4-dihydro-(or 1,4-dihydro)-4-aryl-2-((substituted)thio)-(1)-benzopyrano(3,4-d)imidazol es and their corresponding sulfoxides and sulfones” (E. I. Du Pont de Nemours and Company, priority 1982, dated 1983).

Like-named read-outs stand apart in the source and are kept apart here.

Assay [1] relates to phenylquinone-induced writhing (pain). Kind of assay: Phenylquinone Writhing Test. It is filed as in vivo, female white mice. Particulars: read-out: Phenylquinone Writhing ED50. How it is done:
A test compound suspended in 1% methylcellulose was given orally to fasted (17-21 hours) female white mice, 5-20 animals per double blind test. Aqueous (0.01% phenyl-p-benzoquinone) phenylquinone, 0.20 ml per mouse, was injected intraperitoneally 6 minutes before observations were begun.

For assay [2], the system named is adjuvant-induced arthritis. Put plainly: Established Adjuvant-Induced Arthritis in Rats. It is filed as in vivo, Charles River Lewis male rats. The following applies: rat; for Adjuvant Arthritic, paw volume reduction at the indicated dose: oral; for ED50: oral gavage, dosed on day of grouping and 6 following days, ED50% decrease from control paw volume (uninjected left hind paw), read-out: Adjuvant Arthritic ED50.

Setting [3] is: mouse, oral, fasted, effective analgesic dose for 50% of the mice.

In the case of `CS(=O)(=O)c1nc2c([nH]1)C(c1ccccc1)Oc1ccccc1-2` (stereo not shown) [Example 6, 3,4-Dihydro(or 1,4-dihydro)-2-(methylsulfonyl)-4-phenyl-[1]benzopyrano[3,4-d]imidazole], the ED50 in assay [1] (setting [3]) came to 78 mg/kg. Also, the “Adjuvant Arthritic, paw volume reduction at the indicated dose” value (shortened to “Adjuvant Arthritic, paw volume reduction”) in assay [2] (at 27 (mg/kg)) worked out at 34%.
`COc1ccc(C2Oc3ccccc3-c3nc(SC(F)(F)C(F)F)[nH]c32)cc1` (stereo not shown) [Example 7]: the ED50 in assay [1] (setting [3]) is less than 4 mg/kg.
Turning to `Fc1ccc(C2Oc3ccccc3-c3nc(SC(F)(F)C(F)F)[nH]c32)cc1` (stereo not shown) [Example 3, 3,4-Dihydro(or 1,4-dihydro)-2-[(1,1,2,2-tetrafluoroethyl)thio]-4-(4-fluorophenyl)-[1]benzopyrano[3,4-d]-imidazole], the ED50 in assay [1] (setting [3]) was 0.79 mg/kg; in assay [2] it was 4 mg/kg.
Take `COc1ccc2c(c1)c(CC(=O)O)c(C)n2C(=O)c1ccc(Cl)cc1` [Indomethacin, indomethacin, reference compound]: the ED50 in assay [1] (Mus musculus, po) amounted to 0.35 mg/kg.
Take `O=S(=O)(c1nc2c([nH]1)C(c1ccccc1)Oc1ccccc1-2)C(F)(F)C(F)F` (stereo not shown) [Example 2, 3,4-Dihydro(or 1,4-dihydro)-2-[(1,1,2,2-tetrafluoroethyl)sulfonyl]-4-phenyl-[1]benzopyrano[3,4-d]imidazole]: the ED50 in assay [1] (setting [3]) turned out to be 0.19 mg/kg; in assay [2], 1.3 mg/kg.
The like results for `O=S(=O)(c1nc2c([nH]1)C(c1ccccc1)Oc1ccccc1-2)C(F)(F)F` (stereo not shown) [Example 5, 3,4-Dihydro(or 1,4-dihydro)-2-[(trifluoromethyl)sulfonyl]-4-phenyl-[1]benzopyrano[3,4-d]imidazole] were, in that order, 0.16 mg/kg and 0.8 mg/kg.
The like results for `FC(F)C(F)(F)Sc1nc2c([nH]1)C(c1ccccc1)Oc1ccccc1-2` (stereo not shown) [Example 1, 3,4-Dihydro(or 1,4-dihydro)-2-[(1,1,2,2-tetrafluoroethyl)thio]-4-phenyl-[1]benzopyrano[3,4-d]imidazole] were, in that order, 1.3 mg/kg and 3.4 mg/kg.
On to `FC(F)(F)Sc1nc2c([nH]1)C(c1ccccc1)Oc1ccccc1-2` (stereo not shown) [Example 4, 3,4-Dihydro(or 1,4-dihydro)-2-[(trifluoromethyl)thio]4phenyl-[1]benzopyrano[3,4-d]imidazole], for which the ED50 in assay [1] (setting [3]) is 0.58 mg/kg. Besides, the “Adjuvant Arthritic, paw volume reduction” value in assay [2] (at 9 (mg/kg)) was 31%.
Turning to `CCCCC1C(=O)N(c2ccccc2)N(c2ccccc2)C1=O` [Phenylbutazone, phenylbutazone, reference compound], the ED50 in assay [1] (setting [3]) was determined as 80 mg/kg.
Regarding `FC(F)(F)CSc1nc2c([nH]1)C(c1ccccc1)Oc1ccccc1-2` (stereo not shown) [Example 9], the “Adjuvant Arthritic, paw volume reduction” value in assay [2] (at 20 (mg/kg)) stood at 30%.
On the same count and under the same terms, the figure for `CCSc1nc2c([nH]1)C(c1ccccc1)Oc1ccccc1-2` (stereo not shown) [Example 8] is 18%.
On to `CC(C)Cc1ccc(C(C)C(=O)O)cc1` (stereo not shown) [Ibuprofen, ibuprofen, reference compound], for which the ED50 in assay [1] (setting [3]) was found to be 10 mg/kg.
Turning to `CC(=O)Oc1ccccc1C(=O)O` [Aspirin, aspirin, reference compound], in assay [1] (Mus musculus, po), the ED50 was 135 mg/kg.

As usually defined, the ED50 is the midpoint of the dose-response relation.
